Assay results: patent US20260000763A1, “Methods of Manufacturing Therapeutic Cells” (The Board of Trustees of the Leland Stanford Junior …, priority 2022, published 2026)
“Also recorded” adds a separate entry of the source.

What was measured:
[1] = system: HA-CAR T cells; assay: Expansion of HA-CAR T cells in media with glucose and/or inosine; inosine dose response; type: cell-based, human
[2] = system: HA-CAR T cells; assay: Improvement index overlapped with proliferation to set a therapeutic window for inosine; type: cell-based, human; conditions: 11 mM glucose plus 0.5-11 mM inosine tested; improvement index vs proliferation
Protocol: FIG. 7F: Improvement index calculation scheme.
FIG. 7G: Scatter plot showing correlation between improvement index (y-axis-in black) or proliferation (y-axis-in red) and inosine concentration (x-axis). […] N=2-6 donors from independent experiments.
To establish a therapeutic window for inosine addition, an improvement index was calculated. The index represents a sum of fold change in frequency of CCR7+CD8+ and CD62L+CD8+ at the base line and fold change in IL-2 and IFNγ secretion after 24 hours stimulation with Nalm6-GD2 tumor line by HA-CAR T cells manufactured in 11 mM of glucose and various concentrations of inosine (0.5-11 mM) as compared to control (FIG. 7F).

[3] = system: HA-CAR T cells and CD19.28z-CAR T cells; assay: Cell cycle state by BrdU and 7AAD staining; type: cell-based; conditions: day 10, vs control cells, presence or absence of glucose
Description: 9A: Schematic of the experimental design. […] Graphs represent median expression of indicated markers. […] Representative donor of n=2 donor shown. […] Data are mean+SD from triplicate wells. […] 9K: Schematic of the experimental design. […] Representative donor of n=3 donor shown. […] Representative donor of n=2 donor shown. […] (Top) Dot plots of representative donor shown. […] Representative donor of n=3 donor shown. […] N=2-4 donors from independent experiments. […] N=2-6 donors from independent experiments. […] N=2-4 donors from independent experiments. […] (Top) representative dot plots shown.
Further tested was whether similar functional enhancement occurred with INO exposure in the presence or absence of glucose by serially challenging HA-INO-CAR cells grown in the presence or absence of glucose with Nalm6-GD2. […] Decreased proliferation can be associated with induction of stemness or cells entering quiescence state.

[4] = system: Nalm6-GD2+ leukemia cells; assay: Nalm6-GD2+ leukemia in NSG mice treated with HA CAR T cells; type: in vivo; conditions: 2×10^6 HA CAR T cells IV day 3, expanded in inosine vs regular media
Protocol: A: NSG mice were injected IV with 1×10^6 Nalm6 leukemia cells at day 0, and then 0.2×10^6 CD19.28 CAR T cells, generated in regular or inosine-supplemented media were given IV on day 3. Tumor progression was monitored using bioluminescent imaging. Scales are normalized for all time points. Data are mean+s.e.m. of n=5 mice per group. […] B: NSG mice were injected IV with 1×10^6 Nalm6-GD2+ leukemia cells at day 0, and then 2×10^6 HA CAR T cells, generated in regular or inosine-containing media were given IV on day 3. Tumor progression was monitored using bioluminescent imaging. Scales are normalized for all time points. Data are mean+s.e.m. of n=5 mice per group. […] C: Overall survival. N=5 mice per group. Survival curves were compared using the log-rank Mantel-Cox test. D: NSG mice were injected intramuscular with 1×10^6 143b tumor cells. 4 days later the mice were injected with 1×10^7 Her2, Her2 grown in INO+ media or mock T cells IV. Tumor growth was monitored by caliper measurements. […] N=3-5 mice per group. Survival curves were compared using the log-rank Mantel-Cox test.
In this example, the in vivo anti-tumor potency of CAR T cells manufactured in the presence or absence of inosine was assessed. […] Three days post tumor injection, mice were evaluated and normalized for engraftment using bioluminescent imaging. […]

[5] = system: GD2.bbz-CAR T cells; assay: GD2.bbz-CAR T cells manufactured in GMP-grade AIM 5 media with increasing inosine; type: cell-based
Description: FIG. 8B: Expansion rate of GD2.bbz-CAR T cells between day 3 and day 6 post-activation of CAR T cells grown in AIM 5 containing indicated concentration of inosine. N=4 donors from independent experiments.
FIG. 8C: Viability of GD2.bbz-CAR T cells cultured for 4 days in AIM 5 containing indicated concentration of inosine at day 6 post-activation. N=4 donors from independent experiments.
FIG. 8D: GD2.bbz-CAR T cells grown in media containing indicated inosine concentration between day 3 and day 8 post-activation and stimulated with 143b or Nalm6-GD2 tumor. IFNγ secretion after 24 hrs of co-culture was measured. Data are mean+s.d. of duplicate or triplicate wells. Representative of n=2 donors shown.
Next, to test this therapeutic window in the clinical context, GD2-CAR T cells were manufactured and determined to have anti-tumor activity in diffuse midline gliomas (DMGs) using GMP-grade AIM 5 media with increasing concentrations of INO (FIG. 8A).

[6] = system: Nalm6-GD2, 143b and CHL255 tumor cell lines; assay: Co-culture of HA CAR T cells with GD2-expressing tumor lines: IncuCyte killing, IL-2 and IFNγ secretion; type: cell-based, human; conditions: for antigen induced IFNγ secretion: Nalm6-GD2 24 hrs, D14 cells, INO in presence or absence of glucose

SMILES: O=c1[nH]cnc2c1ncn2[C@@H]1O[C@H](CO)[C@@H](O)[C@H]1O [inosine, Inosine]
- dose response on diminished proliferation, increased CD62L expression and increased IFNγ production ([1]; 0-11 mM INO in RPMI containing 11 mM glucose, without a plateau): clear dose dependent effect
- expansion of HA-CAR T cells ([1]; day 4 to day 10, 11 mM INO in presence or absence of 11 mM glucose, listed as INO): diminished expansion; also recorded: significantly reduced expansion
- inosine concentration range improving phenotype and function without complete inhibition of expansion (therapeutic window) [2]: 2.75 to 11 mM
- cell cycle distribution [3]: higher proportion of cells in S/G2+M phase
- survival [4]: improved
- tumor control [4]: improved
- cell proliferation ([5]; AIM 5 with increasing INO, day 3 to day 6): significantly decreased cell proliferation
- CAR T cell viability ([5]; AIM 5 with increasing INO, day 6): no significant changes
- secretion of IFNγ ([5]; challenged with 143b (low GD2) or Nalm6-GD2 (high GD2), 24 hrs): increase in secretion of IFNγ
- cytotoxic function ([6]; INO added on day 4, 7, 10 or 14, 143b 1:1 E:T from day 15): increased cytotoxic function
- antigen induced IFNγ secretion [6]: significantly enhanced antigen induced IFNγ secretion
- antigen induced IFNγ secretion ([6]; listed as INO): enhanced antigen induced IFNγ secretion
- tumor killing and cytokine secretion after multiple stimulations ([6]; serial challenge with Nalm6-GD2 1:1, glucose present or absent during manufacturing): enhanced tumor killing and cytokine secretion
